Test [1] addresses T1, human CYP17A1 (Homo sapiens, UniProt P05093).
T1 construct: made in house
T1 sequence (P05093 24-508 limits assumed): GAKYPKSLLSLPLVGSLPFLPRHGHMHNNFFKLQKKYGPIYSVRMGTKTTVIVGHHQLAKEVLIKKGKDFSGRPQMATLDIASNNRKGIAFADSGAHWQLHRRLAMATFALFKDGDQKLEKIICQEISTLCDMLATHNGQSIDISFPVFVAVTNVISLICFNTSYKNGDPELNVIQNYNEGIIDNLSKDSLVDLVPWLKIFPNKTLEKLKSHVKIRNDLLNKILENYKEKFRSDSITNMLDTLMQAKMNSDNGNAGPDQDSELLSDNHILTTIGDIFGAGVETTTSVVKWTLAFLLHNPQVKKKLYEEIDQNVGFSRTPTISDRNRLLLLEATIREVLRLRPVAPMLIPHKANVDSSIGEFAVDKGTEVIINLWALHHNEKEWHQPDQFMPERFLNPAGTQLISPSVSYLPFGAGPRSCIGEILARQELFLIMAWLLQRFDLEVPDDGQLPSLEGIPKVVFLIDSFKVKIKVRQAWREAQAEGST
Put plainly: Cytochrome P450 17A1 progesterone 17α-hydroxylation inhibition assay. Format: biochemical. Particulars: recombinant purified CYP17A1. Here is the method: Regardless of their binding affinity, all compounds were tested for their ability to inhibit progesterone 17α-hydroxylation by recombinant purified CYP17A1 (Supplementary Materials S2).
Purified recombinant human CYP17A1 (20 pmol) and human full-length cytochrome P450 reductase (80 pmol) were used to convert progesterone (purchased from Acros Organics, Fair Lawn, NJ, USA) (6 µM) to 17α-hydroxyprogesterone. Test inhibitors were dissolved in DMSO and initially tested in concentrations ranging from 1.3 to 41 µM. In subsequent assays the range of inhibitor concentrations was optimized to best define the IC50 of individual compounds. Reactions were run and the 17α -hydroxyprogesterone product measured by LC-MS as previously published.
IC50 curves for compounds inhibiting CYP17A1 progesterone 17-hydroxylation (black circles),
CYP21A2 progesterone 21-hydroxylation (red diamonds), CYP3A4 nifedipine metabolism
(green squares), and CYP2D6 quinidine metabolism (blue triangles).
(§1) (1 picture or pasted object on this page, not shown here)

Test [2] concerns the target T2, human cytochrome P450 17A1 (Homo sapiens, UniProt P05093).
T2 construct: made in house
T2 sequence (P05093 1-508): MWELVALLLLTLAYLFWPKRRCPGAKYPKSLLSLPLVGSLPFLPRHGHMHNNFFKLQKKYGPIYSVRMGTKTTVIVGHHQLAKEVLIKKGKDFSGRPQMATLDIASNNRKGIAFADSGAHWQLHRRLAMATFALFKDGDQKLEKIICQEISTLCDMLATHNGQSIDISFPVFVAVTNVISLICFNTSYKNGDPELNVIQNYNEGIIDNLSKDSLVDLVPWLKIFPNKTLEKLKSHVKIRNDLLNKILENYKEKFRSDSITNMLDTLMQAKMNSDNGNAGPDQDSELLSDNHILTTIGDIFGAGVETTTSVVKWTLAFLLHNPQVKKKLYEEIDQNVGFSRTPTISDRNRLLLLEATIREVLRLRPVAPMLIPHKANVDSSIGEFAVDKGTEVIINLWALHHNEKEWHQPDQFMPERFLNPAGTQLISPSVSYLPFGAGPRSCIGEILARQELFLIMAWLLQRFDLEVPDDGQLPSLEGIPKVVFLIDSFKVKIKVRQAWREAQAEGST
Put plainly: Spectral binding assay (CYP17A1 ligand binding). The conditions noted are these: purified recombinant human CYP17A1, spectral titration.
Description: The target compounds were initially tested for binding mode and affinity for CYP17A1 using a spectral binding assay. This assay can distinguish the mode of interaction, with a blue shift of the Soret absorbance occurring when ligand displaces water from the heme iron to generate a five-coordinate iron without direct coordination to the heme iron (type I, similar to most substrates) or a red shift of the Soret peak when the ligand nitrogen replaces the water to directly interact with the six-coordinate iron (type II, similar to many inhibitors). […] This 3-pyridyl fragment is also found in abiraterone.
Initial ligand binding was evaluated by measuring absorbance changes in CYP17A1 upon addition of ligands. Purified recombinant human cytochrome P450 17A1 enzyme (1 µM) in buffer (25 mM potassium phosphate, pH 7.4, 200 mM NaCl, 20% glycerol) was titrated with ligands. Ligands were dissolved in DMSO and added to three concentrations (500, 1000, and 2000 nM). The spectral intensity difference (ΔA) was measured as difference between […]. The Amin was typically at ~410 nm and Amax at ~440 nm for the type II changes observed for these ligands.
S2. Binding spectra and CYP IC50 curves
Difference spectrum of cytochrome P450 17A1 with vs. without compound 1a (2 µM).
All compounds are type II and display the same shift as the example above.
as §1

The target of test [3] is T2, human cytochrome P450 17A1. The conditions noted are these: ref [10]; read-out: CYP17A1 Kd; cited from earlier work.
Test [4] deals with T1, human CYP17A1. Also on record: method as in PMID 28373265. Particulars: ref [11]; cited from earlier work.
The subject of test [5] is PC3 cells. The test is described as follows: Prostate cancer cell line proliferation screening (GR), PC3. Format: cell-based, human. The conditions noted are these: 10 µM, 48 h. Here is the method:
Next, we tested the effect of compounds 1a–1e on prostate cancer derived cell lines. The anti-proliferative activity was determined in vitro by adding 10 µM compound to each of three prostate cancer cell lines (LNCaP, DU145, and PC3). As an additional comparison, immortalized non-cancerous fibroblasts (BJ hTERT) were used. These cancer cell lines are considered the classic standard of PCa cell culture. Since these cell lines grew at very different rates, inhibition of growth rate (GR) was used as a metric. All compounds except 1e were non-toxic to non-cancerous cells. Compounds 1a and 1c were both cytotoxic in the PC3 cell line (Figure 3). […] DU145 cells were weakly affected by only compound 1e with growth rate inhibition more than 50% (GR < 0.5). […] We observed substantial susceptibility of PC3 cells in comparison to DU145 (see Supplementary Materials S3 for GR50 in PC3 cells). These two cell lines are similar in many respects. […] However, they differ in their origins, PC3 being derived from a lumbar vertebral metastatic prostate tumour and DU145 from a brain metastatic prostate tumour. […] By observing a uniform response of all cell lines used in the present study to 5-fluorouracil (5-FU), we were able to rule out any general cell dependent variability in chemosensitivity towards anti-metabolite treatment. Still, chemoresistance in PC3 and DU145 may be mediated by other mechanisms. While AR also functions as a tumour suppressor inhibiting cell proliferation, it is possible in AR deprived cells to observe growth inhibition when cells retain necessary coregulators. […]
Cells were grown to approximately 80% confluence in 150 mm culture dishes and harvested by 0.25% Trypsin/EDTA (Gibco) treatment. Released cells were counted and seeded in 384 well plates (Falcon, ref. 353962) in 30 µl media with a cell count of 1500 (BJ cells, PC-3) or and 3500 (LNCaP (Lund)) cells per well. […] The cells incubated for 24 h, after which cell counts in wells of one 384-well plate were determined as described below (time zero). […]

Structures are written as SMILES. Where “and” joins values, the source holds several entries; their conditions need not be identical. Identical values can stand only once. Like-named read-outs stand apart in the source and are kept apart here.

For `c1ccc(Nc2ccc(-n3cnc4ccccc43)cc2)cc1` [Compound 1d], in test [1], the IC50 came to 1.76 ± 0.19 µM. Moreover, the Kd in test [2] turned out to be 0.15 ± 0.037 µM.

In the case of `C[C@]12CC[C@H](O)CC1=CC[C@@H]1[C@@H]2CC[C@]2(C)C(n3cnc4ccccc43)=CC[C@@H]12` [Galeterone], in test [3], the dissociation constant (Kd) was below 0.1 µM. Also, the IC50 in test [4] was 0.13 µM.

`c1ccc2c(c1)ncn2-c1ccc(Nc2ccncc2)cc1` [Compound 1a]: in test [1], the IC50 is 8 µM and 8.06 µM. For the same compound, in test [2], the Kd is 0.29 ± 0.055 µM. For the same compound, in test [5], the “Antiproliferative response in PC3 cells (growth rate inhibition, in words)” value is “cytotoxic”.

As to `C[C@]12CC[C@H](O)CC1=CC[C@@H]1[C@@H]2CC[C@]2(C)C(c3cccnc3)=CC[C@@H]12` [Abiraterone], the Kd in test [3] was below 0.1 µM. In addition, the “Antiproliferative response in PC3 cells (growth rate inhibition, in words)” value in test [5] is listed as “low antiproliferative activity”. In addition, the IC50 in test [4] was 0.08 µM.

`c1ccc(Nc2ccc(-n3cnc4ccccc43)cc2)nc1` [Compound 1b]: the IC50 in test [1] was above 10 µM. Further, in test [2], the equilibrium dissociation constant (Kd) is 0.42 ± 0.07 µM.

The values above are taken from paper PMC7402352, “Discovery of Novel Non-Steroidal Cytochrome P450 17A1 Inhibitors as Potential Prostate Cancer Agents” (International Journal of Molecular Sciences, 2020).
